Laboratory results reported in patent publication US20110021471A1, “REDUCING Abeta42 LEVELS AND Abeta AGGREGATION” (priority 2007, published 2011).

What was measured:
Aβ42 = Aβ42 (Homo sapiens, UniProt P05067); test: Aβ42 aggregation in vitro (native gel electrophoresis); type: biochemical; details: 1 μM, 37° C.
Description: FIG. 2. Aβ modulating agents can inhibit Aβ aggregation, and agents that bind Aβ amyloid can modulate Aβ42 production. […] (C) Aβ42 modulating agents inhibit naturally secreted oligomer formation. 7PA2 cells were treated with fenofibrate, FT-1, or FT-9 at 50 μM and oligomers assessed by IP Western blotting. […] (D) FT-9, an Aβ42 reducing agent, can inhibit Aβ42 aggregation in vitro.

[1] = system: 7PA2 cells (CHO cells stably expressing human APP751 V717F); test: 7PA2 cells: Aβ oligomers (IP/western) and Aβ ELISA; type: cell-based, Chinese hamster
Description: FIG. 17. γ-secretase modulators decrease the production of cell derived Aβ oligomers. CHO cells stably expressing human APP751 containing the familial Alzheimer's disease mutation V717F (referred to as 7PA2 cells) were incubated for ˜16 hours in the presence of GSMs. […] Aβ40 levels were decreased to varying degrees (26-35%; Li-Cor Odyssey). (B) and (C) Because the extended incubation times necessary to reliably detect Aβ oligomers in this assay can be toxic, we carried out additional dose response studies with fenofibrate and FT-9 to verify that decreases in Aβ oligomers levels were not related to toxicity or global inhibition of Aβ production. […] (C) Increasing doses of FT-9 reduced the detection of Aβ oligomeric bands and Aβ42 decreased preferentially with decreases in Aβ40 at higher doses. […] Aβ species present in conditioned medium were detected by IP using the polyclonal anti-Aβ antibody, DW6 and subsequent immunoblotting with either 6E10 or the 42-specific, anti-Aβ antibody 21F12. Aβ levels in the samples analyzed via IP/western were also quantified via sandwich ELISA. Data presented as percent vehicle control±s.e.m., n=2.
To address the question of whether GSMs influence the concentration of secreted amyloid-β oligomers, such as those released by Chinese hamster ovary (CHO) cells expressing the APP V717F mutation (referred to as 7PA2 cells), which alter long-term potentiation and perturb the memory of learned behavior when injected into rat brain, 7PA2 cells were treated with two Aβ42-raising GSMs and a novel Aβ42-lowering GSM (FIG. 17) (Walsh et al., Nature 416:535:539 (2002); Calabrese et al., Mol. Cell. Neurosci. 35:183-193 (2007)). Fenofibrate and FT-1 increased amounts of Aβ42 whereas FT-9 lowered Aβ42, but all three GSMs decreased amounts of amyloid-β dimers and trimers. […] In contrast to increased amyloid-β oligomer formation, when CHO cells are genetically manipulated to increase Aβ42 production by co-expression of APP and FAD-linked mutant PSEN1 proteins, both Aβ42-lowering and -raising GSMs decreased oligomer formation (Xia et al., J. Biol. Chem. 272: 7977-7982 (1997)).

APP-CTF = biological target: T1, APP-CTF (Homo sapiens, UniProt P05067); test: Photoaffinity labelling of APP and APP CTF in H4 cell membrane fractions and competition; type: binding; details: microsomal membrane fractions from H4 cells expressing wild-type APP
T1 construct: this protein was designated α-secretase-derived APP CTF (CTF83) on the basis of molecular weight; expressed in transfected cells
T1 sequence (P05067 688-770 limits assumed): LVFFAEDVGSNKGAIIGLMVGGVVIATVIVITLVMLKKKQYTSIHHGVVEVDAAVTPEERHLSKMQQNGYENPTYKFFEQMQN
Description: (§1) Photoaffinity labelling. All experiments used the following general protocol. Samples (recombinant or synthetic peptides, cell lysates and membrane preparations) were exposed in borosilicate test tubes to ultraviolet light (350 nm) in a Rayonet Photoreactor R100 (RPR-3500 lamps, Southern New England Ultra Violet Company) in a cold room (4° C.) for 30 minutes or as otherwise noted. Crosslinked samples were analyzed by ELISA for biotin incorporation, or analyzed directly by SDS-PAGE (Criterion-XT, Bio-Rad), or after precipitation with streptavidin ultralink plus beads (Pierce). After immunblotting, proteins were detected using chemiluminesence (ECL Plus, GEHealthcare) or near-infrared fluorescence (LiCor Odyssey). Full-length APP and APP CTFs (CTF83, CTF99) were detected with CT20, a rabbit polyclonal antibody against the C-terminus of APP. Biotin was detected with an affinity-purified rabbit polyclonal antibody (Bethyl). Cell-based screens for amyloid-β modulation.

[2] = biological target: T2, γ-secretase (PSEN1, NCSTN, APH1, PEN2) (UniProt +P49768+Q96BI3+Q9NZ42); test: Photoaffinity labelling of purified γ-secretase preparation; type: binding; details: Fen-B 300 μM
T2 construct: made in house; host or cells: CHO c-30 (γ-30) cells

[3] = biological target: amyloid-β peptides (Aβ1-40, Aβ1-36, Aβ1-28, Flag-Aβ25-36) (Homo sapiens, UniProt P05067); test: Photoaffinity labelling of amyloid-β peptides; type: binding
Description: (§2) FIG. 1. […] The top panel is for anti-biotin staining; the middle panel is for anti-FLAG staining; and the bottom panel is an overlay of anti-biotin (red and anti-Flag green, LiCor Odyssey imaging). (E) Same samples as in D, but analyzed using an ELISA. Following crosslinking, C100Flag and N100 Flag were captured using anti-FLAG plate, and biotin incorporation was measured using streptavidin-HRP. […] Fen-B (50 μM) was crosslinked to Aβ (10 μM). Biotin labeling was measured following capture with an anti-Aβ1-16 antibody and detection with streptavidin-HRP.
(§3) Photoaffinity labelling. All experiments used the following general protocol. Samples (recombinant or synthetic peptides, cell lysates and membrane preparations) were exposed in borosilicate test tubes to ultraviolet light (350 nm) in a Rayonet Photoreactor R100 (RPR-3500 lamps, Southern New England Ultra Violet Company) in a cold room (4° C.) for 30 minutes or as otherwise noted. Crosslinked samples were analyzed by ELISA for biotin incorporation, or analyzed directly by SDS-PAGE (Criterion-XT, Bio-Rad), or after precipitation with streptavidin ultralink plus beads (Pierce). After immunblotting, proteins were detected using chemiluminesence (ECL Plus, GEHealthcare) or near-infrared fluorescence (LiCor Odyssey). Full-length APP and APP CTFs (CTF83, CTF99) were detected with CT20, a rabbit polyclonal antibody against the C-terminus of APP. Biotin was detected with an affinity-purified rabbit polyclonal antibody (Bethyl). Cell-based screens for amyloid-β modulation. Human H4 neuroglioma cells (American Type Culture Collection, ATCC) expressing wild-type APP695 protein or CTF105 fused to secreted alkaline phosphatase which is efficiently processed to APP CTFs (CTF83, CTF99) and produce high levels of amyloid-β, were used for the cell-based screens as previously described. Cells were incubated for 5-6 hours in the presence of the various compounds in Opti-Mem culture medium containing 1% fetal bovine serum. Compounds were dissolved in dimethylsulphoxide (DMSO; 0.5% final concentration) and diluted 200-fold. Media was analyzed for various amyloid-β species (40, 42 and total) using ELISAs as described herein. The EC50 values for changes in amyloid-β species were calculated by fitting sigmoid dose-response curves using nonlinear regression in Prism (GraphPad) and are shown as values±s.e.m. Statistical analysis. Data are presented as either percentage control or mean±s.e.m. Results were analyzed using Prism (Graph Pad) with t-tests or one-way analysis of variance analyses (ANOVAs) with Dunnett's post-hoc correction for comparison of multiple samples to a control. Statistical significance is shown as P,0.05 (one asterisk), P,0.01 (two asterisks) or P,0.001 (three asterisks).
Because the putative binding region of GSMs is also found in full-length APP, labeling of both APP fragments in cells was assayed.

γ-secretase = γ-secretase (Homo sapiens, UniProt P49768); test: Cell-free in vitro γ-secretase assay; type: biochemical
Description: FIG. 5. Fenofibrate-Biotin (Fen-B) is an Aβ42 raising GSM that labels cell-derived APP-CTF. (A) The effects of fenofibrate and fenofibrate-biotin (Fen-B) on Aβ production were investigated in a cell-free in vitro γ-secretase assay performed as described in the methods. […] Percent control Aβ species±s.e.m., n=2. (B) Fen-B labels APP-CTFs from cells lysates. CHAPSO solubilized membrane fractions from H4 APP-CTF-105-AP cells were irradiated (350 nm) in the presence of Fen-B (50 μM) for 30 minutes. Biotinylated material was precipitated with streptavidin overnight (SAv). Beads were washed (3×) and then incubated with XT sample buffer, heated to 95° C., run on 12% Criterion XT gels, and transferred to nitrocellulose membranes. Blots were probed for biotin (Bethyl) and APP (CT20). Excess drug (Fen-B) and unlableled APP-CTF is detected in the flow-through from the beads (unbound lane). Biotin bound to streptavdin (SAv) is detected by the anti-biotin antibody. APP-CTF-83 is pulled down in lane 2 and is reactive with anti-biotin and anti-APP (CT20).
Congo red (CR) and chrysamine G (CG), two of the most well characterized amyloid-β dyes, act as GSMs in cell-free γ-secretase assays.

Notch (C100)-Flag = biological target: T3, Notch (C100)-Flag (Mus musculus, UniProt Q01705); test: Photoaffinity labelling of Notch (C100)-Flag; type: binding
T3 construct: a recombinant substrate derived from mouse Notch (Notch (C100)-Flag)
T3 sequence (Q01705 1711-1809 limits assumed): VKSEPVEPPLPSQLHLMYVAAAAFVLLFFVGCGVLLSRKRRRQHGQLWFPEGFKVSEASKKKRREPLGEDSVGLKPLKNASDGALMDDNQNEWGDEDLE
Description: as §1, with “modulation. […] Media was analyzed for various amyloid-β species (40, 42 and total) using ELISAs as described herein. The EC50 values for changes in amyloid-β species were calculated by fitting sigmoid dose-response curves using nonlinear regression in Prism (GraphPad) and are shown as values±s.e.m. […]” for “modulation.”

H4Bri-C99 (CTF-3) = system: H4Bri-C99 (CTF-3)
Description: FIG. 6. […] Parent GSMs and biotin tagged photoactivatable GSMs were evaluated for their effects on Aβ secreted from H4Bri-C99 (CTF-3). Cells were treated with compounds for 6 hours and Aβ measured by ELISA. […] Changes in Aβ (percent control)±s.e.m., n=3.
as §3

APP(C100)-Flag = biological target: T4, APP(C100)-Flag (Homo sapiens, UniProt P05067); test: Photoaffinity labelling of APP(C100)-Flag and competition; type: binding
T4 construct: APP(C100)-Flag, comprising the 99 C-terminal residues of APP plus a methionine at the N-terminus; added methionine (N)
T4 sequence (P05067 672-770 limits assumed): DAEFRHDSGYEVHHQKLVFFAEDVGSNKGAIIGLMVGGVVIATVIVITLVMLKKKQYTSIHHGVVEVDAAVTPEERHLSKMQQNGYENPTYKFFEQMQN
Description: as §2, §3
The ability of a purified, recombinant Flag-tagged γ-secretase substrate derived from APP (APP(C100)-Flag, comprising the 99 C-terminal residues of APP plus a methionine at the N-terminus) to be labeled by Fen-B and Flurbi-BpB was tested.

[4] = FT-9 and FT-1 20 μM, fenofibrate 100 μM, ~16 hours

Sequence of Aβ42 (P05067 672-713 limits assumed): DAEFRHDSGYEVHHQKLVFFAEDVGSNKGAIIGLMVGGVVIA

Structure (SMILES): CC(C(=O)O)c1cccc(Oc2cc(Cl)cc(Cl)c2)c1 (centres unmarked) [FT-9, 2-(3-(3,5-dichlorophenoxy)phenyl)propanoic acid]
- Aβ42 aggregation in vitro (Aβ42): inhibits Aβ42 aggregation
- total Aβ (ELISA) in dose response studies [1]: did not decrease
- naturally secreted oligomer formation ([1]; 50 μM, IP Western blotting): inhibit oligomer formation
- Aβ42 production in 7PA2 cells [1, 4]: lowers Aβ42
- dimeric and trimeric Aβ species [1, 4]: reduce production of dimeric and trimeric Aβ species

Structure (SMILES): CC(C)(Oc1ccc(C(=O)c2ccc(Cl)cc2)cc1)C(=O)NCCCCCNC(=O)CCCCC1SCC2NC(=O)NC21 (centres unmarked) [Fen-B, N-(5-(2-(4-(4-chlorobenzoyl)phenoxy)-2-methylpropanamido)pentyl)-5-(2-oxo-hexahydro-1H-thieno[3,4-d]imidazol-4-yl)pentanamide]
- labeling of full-length APP and APP CTFs (APP-CTF): labeled full-length APP and APP CTFs
- labeling of γ-secretase components [2]: Absence of PS1, NCT, APH1, and Pen2 labeling
- labeling of Aβ1-28 [3]: did not label
- labeling of Aβ1-36 [3]: efficiently labeled
- labeling of Aβ1-40 [3]: efficiently labeled
- labeling of Flag-tagged Aβ25-36 [3]: preferentially label
- Aβ42 in cell-free γ-secretase assay (γ-secretase): raise Aβ42 with similar potencies
- labeling of Notch (C100)-Flag (Notch (C100)-Flag): less efficient than Fen-B labeling of the APP(C100)-Flag
- Toxicity, based on cell morphology and XTT assay (H4Bri-C99 (CTF-3)): toxic at higher doses
- Aβ42 increase (H4Bri-C99 (CTF-3); 33 μM, 6 hours): ~200%
- labeling of APP(C100)-Flag (APP(C100)-Flag): label a recombinant APP c-secretase substrate (APP(C100)-Flag) with similar potency
- labeling of CTF-γ (CTF-50) (APP(C100)-Flag; peptides 5 μM, Fen-B 25 μM, 30 minutes): no evidence for binding to CTF-γ
